From the supplement of paper PMC10307832

Legend:
Test in all cases: relative viability (nuclei count vs DMSO), 5 days (fraction); higher = more cells survive
[1] = compound: CN(C)C[C@@H]1CCn2cc(c3ccccc32)C2=C(C(=O)NC2=O)c2cn(c3ccccc23)CCO1 [Ruboxistaurin] + C[C@@H](Oc1cc(-c2cnn(C3CCNCC3)c2)cnc1N)c1c(Cl)ccc(F)c1Cl [Crizotinib] (partner 1 µM)
Procedure, shortened: (§1)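 Five library-drug doses in √10 steps were combined with a fixed anchor-drug dose, or a single drug was given alone, by pin tool to lung cancer cell lines in 1536-well plates the day after seeding. Nuclei were stained and counted after 5 days. Relative viability is the nuclei count in treated wells over that in vehicle wells, taken as the median of duplicate plates.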

[2] = compound: CN(C)C[C@@H]1CCn2cc(c3ccccc32)C2=C(C(=O)NC2=O)c2cn(c3ccccc23)CCO1 [Ruboxistaurin] + CS(=O)(=O)N1CCN(Cc2cc3nc(-c4cccc5[nH]ncc45)nc(N4CCOCC4)c3s2)CC1 [Pictilisib] (partner 1 µM)
Procedure, shortened: as §1

[3] = compound: CN(C)C[C@@H]1CCn2cc(c3ccccc32)C2=C(C(=O)NC2=O)c2cn(c3ccccc23)CCO1 [Ruboxistaurin] + Cc1nc(NC(=O)N2CCC[C@H]2C(N)=O)sc1-c1ccnc(C(C)(C)C(F)(F)F)c1 [Alpelisib] (partner 2 µM)
Procedure, shortened: as §1

Ruboxistaurin + Olaparib = compound: CN(C)C[C@@H]1CCn2cc(c3ccccc32)C2=C(C(=O)NC2=O)c2cn(c3ccccc23)CCO1 [Ruboxistaurin] + O=C(c1cc(Cc2n[nH]c(=O)c3ccccc23)ccc1F)N1CCN(C(=O)C2CC2)CC1 [Olaparib] (partner 8 µM)
Procedure, shortened: as §1

[4] = compound: CN(C)C[C@@H]1CCn2cc(c3ccccc32)C2=C(C(=O)NC2=O)c2cn(c3ccccc23)CCO1 [Ruboxistaurin] + C[C@]1(O)C[C@@H](c2nc(-c3ccc4ccc(-c5ccccc5)nc4c3)c3c(N)nccn32)C1 [Linsitinib] (partner 1 µM)
Procedure, shortened: as §1

[5] = compound: CN(C)C[C@@H]1CCn2cc(c3ccccc32)C2=C(C(=O)NC2=O)c2cn(c3ccccc23)CCO1 [Ruboxistaurin] + CS(=O)(=O)CCNCc1ccc(-c2ccc3ncnc(Nc4ccc(OCc5cccc(F)c5)c(Cl)c4)c3c2)o1 [Lapatinib] (partner 2 µM)
Procedure, shortened: as §1

[6] = compound: CN(C)C[C@@H]1CCn2cc(c3ccccc32)C2=C(C(=O)NC2=O)c2cn(c3ccccc23)CCO1 [Ruboxistaurin] + CC(C)C[C@H](NC(=O)[C@H](Cc1ccccc1)NC(=O)c1cnccn1)B(O)O [Bortezomib] (partner 0.002 µM)
Procedure, shortened: as §1

[7] = compound: CN(C)C[C@@H]1CCn2cc(c3ccccc32)C2=C(C(=O)NC2=O)c2cn(c3ccccc23)CCO1 [Ruboxistaurin] + COc1cc2c(Oc3ccc(NC(=O)C4(C(=O)Nc5ccc(F)cc5)CC4)cc3F)ccnc2cc1OCCCN1CCOCC1 [Foretinib] (partner 0.25 µM)
Procedure, shortened: as §1

[8] = compound: CN(C)C[C@@H]1CCn2cc(c3ccccc32)C2=C(C(=O)NC2=O)c2cn(c3ccccc23)CCO1 [Ruboxistaurin] + CC1(C)CCC(c2ccc(Cl)cc2)=C(CN2CCN(c3ccc(C(=O)NS(=O)(=O)c4ccc(N[C@H](CCN5CCOCC5)CSc5ccccc5)c(S(=O)(=O)C(F)(F)F)c4)cc3)CC2)C1 [Navitoclax] (partner 0.5 µM)
Procedure, shortened: as §1

Ruboxistaurin = compound: CN(C)C[C@@H]1CCn2cc(c3ccccc32)C2=C(C(=O)NC2=O)c2cn(c3ccccc23)CCO1 [Ruboxistaurin]
Procedure, shortened: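 Viability was read as treated-well nuclei divided by vehicle-well nuclei, using the median across plates. Lung cancer cell lines in 1536-well plates were kept overnight at 37 °C, pinned with five √10-spaced library-drug doses, and after 5 days were Hoechst-stained, imaged at 4× and counted in MetaXpress. Plates passed only with control CV below 25% and at least one doubling.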

Cell Line | relative viability ([1]; first compound 0.08 µM) | relative viability ([1]; first compound 0.8 µM) | relative viability ([1]; first compound 2.53 µM) | relative viability ([1]; first compound 8 µM) | relative viability ([2]; first compound 0.08 µM) | relative viability ([2]; first compound 0.8 µM) | relative viability ([2]; first compound 2.53 µM) | relative viability ([2]; first compound 8 µM) | relative viability ([3]; first compound 0.08 µM) | relative viability ([3]; first compound 0.8 µM) | relative viability ([3]; first compound 2.53 µM) | relative viability ([3]; first compound 8 µM) | relative viability (Ruboxistaurin + Olaparib; first compound 0.08 µM) | relative viability (Ruboxistaurin + Olaparib; first compound 0.8 µM) | relative viability (Ruboxistaurin + Olaparib; first compound 2.53 µM) | relative viability (Ruboxistaurin + Olaparib; first compound 8 µM) | relative viability ([4]; first compound 0.08 µM) | relative viability ([4]; first compound 0.8 µM) | relative viability ([4]; first compound 2.53 µM) | relative viability ([4]; first compound 8 µM) | relative viability ([5]; first compound 0.08 µM) | relative viability ([5]; first compound 0.8 µM) | relative viability ([5]; first compound 2.53 µM) | relative viability ([5]; first compound 8 µM) | relative viability ([6]; first compound 0.08 µM) | relative viability ([6]; first compound 0.8 µM) | relative viability ([6]; first compound 2.53 µM) | relative viability ([6]; first compound 8 µM) | relative viability ([7]; first compound 0.08 µM) | relative viability ([7]; first compound 0.8 µM) | relative viability ([7]; first compound 2.53 µM) | relative viability ([7]; first compound 8 µM) | relative viability ([8]; first compound 0.08 µM) | relative viability ([8]; first compound 0.8 µM) | relative viability ([8]; first compound 2.53 µM) | relative viability ([8]; first compound 8 µM) | relative viability (Ruboxistaurin; 0.08 µM) | relative viability (Ruboxistaurin; 0.8 µM) | relative viability (Ruboxistaurin; 2.53 µM) | relative viability (Ruboxistaurin; 8 µM)
Calu-6 | 0.899 | 0.697 | 0.807 | 0.822 | 0.94 | 0.848 | 0.795 | 0.607 | 0.95 | 0.897 | 0.981 | 0.809 | 0.635 | 0.564 | 0.669 | 0.585 | 0.978 | 0.804 | 0.913 | 0.942 | 1.15 | 1.02 | 1.08 | 0.933 | 1.12 | 0.948 | 1.1 | 1.17 | 0.949 | 0.848 | 0.93 | 0.893 | 0.967 | 0.776 | 0.862 | 1.01 | 1.07 | 0.951 | 1.06 | 0.982
EBC-1 | 0.19 | 0.198 | 0.17 | 0.167 | 0.372 | 0.278 | 0.296 | 0.215 | 0.82 | 0.692 | 0.741 | 0.706 | 0.763 | 0.558 | 0.663 | 0.447 | 1.02 | 0.691 | 0.89 | 1.04 | 0.215 | 0.216 | 0.2 | 0.201 | 0.587 | 0.5 | 0.437 | 0.454 | 0.102 | 0.118 | 0.121 | 0.102 | 0.527 | 0.308 | 0.381 | 0.358 | 1.13 | 0.96 | 0.97 | 0.932
